Data from patent US10941157B2, “Pesticidal compositions and uses thereof” (Gilead Apollo, LLC, priority 2015, dated 2021).
≈ marks a conversion by molar mass, not a printed value. Read-outs that look alike come from different tables or passages of the source.

Columns and labels:
[1] = system: Blumeria graminis f. sp. hordei; experiment: Early foliar disease control via seed treatment (barley powdery mildew); format: in vivo; settings: seed treatment rate 0.025 mg/seed; barley inoculated 7 days after planting, evaluated 7 days later
Experimental: Barley seeds (Hordeum vulgare cv. Perry or Conlon) were treated with a test compound dissolved in pure acetone, in which the acetone solution (1 mL) was used per 50 seeds in glass jars in a fume hood. The seeds were swirled in the glass jars by hand until no obvious presence of acetone remained and the seeds were mostly dry. Plants were grown for 7 days in 2-inch square pots containing Metromix 200 medium amended with fertilizer. […] After inoculation with the pathogen of Blumeria graminis f. sp. hordei, plants were kept at conditions of 20 to 22° C., 200 uM of light, 70% humidity to facilitate infection and disease development. At 7 days after planting (1st true leaf fully expanded), the plants were moved to the cooler chamber and inoculated by shaking well-colonized, untreated stock plants above the treated material. […] Efficacy was evaluated in 7 days later by examining leaves for colonization and growth of powdery mildew. Each side of each leaf was assigned a severity rating of 0, 1, 5, 10, 25, 50, 75, or 100 percent diseased area. Table 14 lists the results of barley powdery mildew control upon seed treatment with test compounds.

Phakopsora pachyrhizi = experiment: Foliar protection test for Asian soybean rust control; format: in vivo; settings: foliar application to soybean (Glycine max AG4832), percent disease area evaluated 14 days later
Fusarium graminearum = format: in vivo; settings: corn from treated seeds, 0.025 mg/seed, F. graminearum inoculated
Pythium ultimum = experiment: Seed protectant for soybean seedling disease, P. ultimum; format: in vivo; settings: soybean from treated seeds, 0.025 mg/seed, P. ultimum inoculated; for Plant Weight: fresh weight at 14 days; for Improvement in plant weight: percentage of non-inoculated non-treated controls
How it was run: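 Treated soybean seeds (cv. AG4832) sown over R. solani (sorghum) or P. ultimum (millet) inoculum, grown at 20–24 °C, 14 h light, 65% humidity. Emergence scored at 7 and 14 days; shoot fresh weight at 14 days compared against inoculated and non-inoculated untreated seeds.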

Diplodia maydis (Dm) = experiment: In vitro pathogen growth inhibition assay, Dm; format: cell-based; settings: Stenocarpella maydis, 48 h
How it was run: (§1)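 Value reported is the compound concentration reaching ≥90% growth inhibition, from OD readings at 24 and 48 h after blank subtraction, confirmed visually. Inoculum was spores diluted in 17% V8 medium, except Rs, using 1.5 mm mycelial plugs in ¼ PDB; actual compound concentration corrected via OD600.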

Puccinia triticina = experiment: Foliar protection test for wheat leaf rust control; format: in vivo; settings: foliar application to wheat (Triticum aestivum cv. Winterhawk), evaluated 10 days later
Botrtyis cinerea (Bc) = experiment: In vitro pathogen growth inhibition assay, Bc; format: cell-based; settings: 48 h
How it was run: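 Spores in 17% V8 liquid medium, or 1.5 mm Rs mycelial plugs in ¼ PDB, incubated with compound; final concentration checked by OD600 for precipitation. OD readings at 24 and 48 h, blank-subtracted, plus visual ratings; value is concentration giving ≥90% growth inhibition.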

[2] = system: Phytophthora capsici (Pc); experiment: In vitro pathogen growth inhibition assay, Pc; format: cell-based; settings: 48 h
How it was run: as §1

[3] = ≥90% growth inhibition, 48 hours, vs 2% DMSO control, read-out: Compound Concentration (ppm) sufficient for ≥90% inhibition of Dm
[4] = ≥90% growth inhibition, 48 hours, vs 2% DMSO control, read-out: Compound Concentration (ppm) sufficient for ≥90% inhibition of Bc
[5] = ≥90% growth inhibition, 48 hours, vs 2% DMSO control, read-out: Compound Concentration (ppm) sufficient for ≥90% inhibition of Pc

Structure (SMILES)	Barley Powdery Mildew Reduction (%) [1]	Asian Soybean Rust Control at a compound concentration of 25 ppm or lower (Phakopsora pachyrhizi)	Plant Height (Fusarium graminearum; Table 13)	Plant Weight (Pythium ultimum)	Improvement in plant weight (Pythium ultimum)	IC90 (Diplodia maydis (Dm); [3])	Wheat Leaf Rust Control at a compound concentration of 10 ppm or lower (Puccinia triticina)	IC90 (Botrtyis cinerea (Bc); [4])	IC90 [2, 5]	Plant Height (Fusarium graminearum; Table 12)	IC90 (Diplodia maydis (Dm); ≥90% inhibition, 48 hours vs 2% DMSO control, read-out: Compound Concentration (ppm) sufficient for ≥90% inhibition of growth, Dm)	IC90 (Botrtyis cinerea (Bc); ≥90% inhibition, 48 hours vs 2% DMSO control, read-out: Compound Concentration (ppm) sufficient for ≥90% inhibition of growth, Bc)	IC90 ([2]; ≥90% inhibition, 48 hours vs 2% DMSO control, read-out: Compound Concentration (ppm) sufficient for ≥90% inhibition of growth, Pc)
COc1ccccc1[C@H](Cn1c(=O)n(C(C)(C)C(=O)NC(C)C)c(=O)c2c(C)c(-n3nccn3)sc21)OCCC#N [Compound I-193, (R)-2-(1-(2-(2-cyanoethoxy)-2-(2-methoxyphenyl)ethyl)-5-methyl-2,4-dioxo-6-(2H-1,2,3-triazol-2-yl)-1,4-dihydrothieno[2,3-d]pyrimidin-3 (2H)-yl)-N-isopropyl-2-methylpropanamide]	96%	AA (≥85% control of Asian soybean rust)	40.66 cm	5.36 g	86%	0.08 µg/mL (≈ 0.138 µM)	AA (≥85% control of wheat leaf rust)	≥ 0.08 µg/mL	2 µg/mL (≈ 3.45 µM)	–	–	–	–
COc1ccc(F)cc1[C@H](Cn1c(=O)n(C(C)(C)C(=O)NC(C)C)c(=O)c2c(C)c(-n3nccn3)sc21)OCCC#N [Compound I-095, (R)-2-(1-(2-(2-cyanoethoxy)-2-(5-fluoro-2-methoxyphenyl)ethyl)-5-methyl-2,4-dioxo-6-(2H-1,2,3-triazol-2-yl)-1,4-dihydrothieno[2,3-d]pyrimidin-3 (2H)-yl)-N-isopropyl-2-methylpropanamide]	–	AA (≥85% control of Asian soybean rust)	43.97 cm	4.65 g	74%	–	AA (≥85% control of wheat leaf rust)	–	–	39.41 cm	0.08 µg/mL (≈ 0.134 µM)	0.4 µg/mL (≈ 0.669 µM)	≥ 2 µg/mL
COc1ccc(F)cc1[C@H](Cn1c(=O)n(C(C)(C)C(=O)NC(C)C)c(=O)c2c(C)c(-n3cccn3)sc21)OCCC#N [Compound I-191, (R)-2-(1-(2-(2-cyanoethoxy)-2-(5-fluoro-2-methoxyphenyl)ethyl)-5-methyl-2,4-dioxo-6-(1H-pyrazol-1-yl)-1,4-dihydrothieno[2,3-d]pyrimidin-3 (2H)-yl)-N-isopropyl-2-methylpropanamide]	94%	A (from 70% to 84% control of Asian soybean rust)	–	5.00 g	80%	≥ 0.4 µg/mL	AA (≥85% control of wheat leaf rust)	0.4 µg/mL (≈ 0.67 µM)	50 µg/mL (≈ 83.8 µM)	35.50 cm	–	–	–
